Assays:
T47D cells = assay: Cellular growth inhibition assay for T47D cells, CellTiter-Glo; assay type: cell-based, human; conditions: 72 hours treatment, CellTiter-Glo 2.0 cell viability
Method in brief: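 Luminescence from CellTiter-Glo 2.0 after 72 h of compound exposure gives the viability signal. Cells grew in insulin-supplemented (0.2 units/mL) DMEM with 10% FBS and were treated one day after seeding at 0.5% DMSO. GI50 values come from four-parameter nonlinear regression.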

VCaP cells = assay: Cellular growth inhibition assay for VCaP cells, CellTiter-Glo; assay type: cell-based, human; conditions: 72 hours treatment, CellTiter-Glo 2.0
Method in brief: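 GI50 values come from four-parameter curve fits of luminescence data normalized to a zero baseline. Compound, in medium with 0.5% DMSO, was added one day after plating and left for 72 h before CellTiter-Glo 2.0 addition.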

[1] = test system: T-Rex 293 cell line SC3 cells lacking increased expression of androgen receptor protein; assay: Cellular growth inhibition, T-Rex 293 SC3 cells without doxycycline, CellTiter-Glo; assay type: cell-based; conditions: T-Rex 293 SC3 cells not exposed to doxycycline, CellTiter-Glo 2.0
Method in brief: (§1)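 GI50 came from a four-parameter fit of CellTiter-Glo 2.0 luminescence after 72 h compound exposure (0.5% DMSO, 37 °C), dosing 24 h post-seeding. SC3 clone cells (2500/well), transfected with wild-type androgen receptor, grew in charcoal-stripped serum medium lacking phenol red, induced with 10 ng/mL doxycycline or left uninduced.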

[2] = test system: T-Rex 293 cell line SC3 cells having increased expression of androgen receptor protein due to exposure to doxycycline; assay: Cellular growth inhibition, T-Rex 293 SC3 cells with doxycycline (androgen receptor induced), CellTiter-Glo; assay type: cell-based; conditions: T-Rex 293 SC3 cells with 10 ng/mL doxycycline (increased androgen receptor expression)
Method in brief: as §1

GI50 (T47D cells; Homo sapiens, T47D, 72 h) [nM] | GI50 (VCaP cells; Homo sapiens, VCaP, 72 h) [nM] | GI50 (T47D cells) [nM] | GI50 (VCaP cells) [nM] | Compound | GI50 ([1]; 72 h) [nM] | GI50 ([2]; 72 h) [nM] | GI50 ([1]; 72 hours) [nM] | GI50 ([2]; 72 hours) [nM]
> 3000 | > 3000 |  |  | Cc1sc2c(c1C)C(c1ccc([C@H]3C[C@@H]([C@H]4CCN(c5ncc(C(=O)N[C@H]6C(C)(C)[C@H](Oc7ccc(C#N)c(Cl)c7)C6(C)C)cn5)C4)C3)cc1)=N[C@@H](Cc1ncco1)c1nnc(C)n1-2 [Compound I-415] | > 3000 | > 3000 |  | 
 |  | 500 to 1500 | < 500 | Cc1sc2c(c1C)C(c1ccc(CC3CCC4(C3)CN(c3ncc(C(=O)N[C@H]5C(C)(C)[C@H](Oc6ccc(C#N)c(Cl)c6)C5(C)C)cn3)CCO4)cc1)=N[C@@H](C)c1nnc(C)n1-2 (some centres unmarked) [Compound I-620] |  |  | < 500 | < 500
500 to 1500 | 500 to 1500 |  |  | Cc1sc2c(c1C)C(c1ccc(O[C@H]3C[C@@]4(CCCN(c5ncc(C(=O)N[C@H]6C(C)(C)[C@H](Oc7ccc(C#N)c(Cl)c7)C6(C)C)cn5)C4)C3)cc1)=N[C@@H](C)c1nnc(C)n1-2 [Compound I-392] | > 3000 | < 500 |  | 
< 500 | < 500 |  |  | Cc1sc2c(c1C)C(c1ccc(CCCOC3CCN(c4ncc(C(=O)N[C@H]5C(C)(C)[C@H](Oc6ccc(C#N)c(Cl)c6)C5(C)C)cn4)CC3)cc1)=C[C@H](Cc1ccncn1)c1nnc(C)n1-2 [Compound I-375] | < 500 | < 500 |  | 
< 500 | 500 to 1500 |  |  | COCC[C@@H]1N=C(c2ccc(N3CC(CC4CCN(c5cnc(C(=O)N[C@H]6C(C)(C)[C@H](Oc7ccc(C#N)c(Cl)c7)C6(C)C)cn5)CC4)C3)cc2)c2c(sc(C)c2C)-n2c(C)nnc21 [Compound I-609] | < 500 | < 500 |  | 
 |  | > 3000 | < 500 | COCC[C@@H]1N=C(c2ccc(OC3CC4(CCCN(c5ncc(C(=O)N[C@H]6C(C)(C)[C@@H](Oc7ccc(C#N)c(Cl)c7)C6(C)C)cn5)C4)C3)cc2)c2c(sc(C)c2C)-n2c(C)nnc21 [Compound I-570] |  |  | > 3000 | < 500
< 500 | < 500 |  |  | Cc1sc2c(c1C)C(c1ccc(N3CC4(C3)CC3(CCN(c5ncc(C(=O)N[C@H]6C(C)(C)[C@H](Oc7ccc(C#N)c(Cl)c7)C6(C)C)cn5)CC3)C4)cc1)=N[C@@H](Cc1ncco1)c1nnc(C)n1-2 [Compound I-388] | > 3000 | < 500 |  | 
500 to 1500 | 500 to 1500 |  |  | Cc1sc2c(c1C)C(c1ccc(C[C@@H]3CC[C@@]4(CCCN(c5ncc(C(=O)N[C@H]6C(C)(C)[C@H](Oc7ccc(C#N)c(Cl)c7)C6(C)C)cn5)C4)C3)cc1)=N[C@@H](Cc1ncco1)c1nnc(C)n1-2 [Compound I-164] | > 3000 | < 500 |  | 
500 to 1500 | 1500 to 3000 |  |  | Cc1sc2c(c1C)C(c1ccc(C(=O)N3CC[C@]4(CCCN(c5ncc(C(=O)N[C@H]6C(C)(C)[C@H](Oc7ccc(C#N)c(Cl)c7)C6(C)C)cn5)C4)C3)cc1)=N[C@H](Cc1ncco1)c1nnc(C)n1-2 [Compound I-259] | > 3000 | < 500 |  | 
< 500 | < 500 |  |  | Cc1sc2c(c1C)C(c1ccc(O[C@@H]3CC[C@@]4(CCCN(c5ncc(C(=O)N[C@H]6C(C)(C)[C@H](Oc7ccc(C#N)c(Cl)c7)C6(C)C)cn5)C4)C3)cc1)=N[C@@H](Cc1ncco1)c1nnc(C)n1-2 [Compound I-201] | > 3000 | < 500 |  | 
< 500 | < 500 |  |  | Cc1sc2c(c1C)C(c1ccc([C@H]3C[C@@H]([C@H]4CCN(c5ncc(C(=O)N[C@H]6C(C)(C)[C@H](Oc7ccc(C#N)c(Cl)c7)C6(C)C)cn5)C4)C3)cc1)=N[C@H](Cc1ncco1)c1nnc(C)n1-2 [Compound I-417] | < 500 | < 500 |  | 
> 3000 | > 3000 |  |  | Cc1sc2c(c1C)C(c1ccc(OC3CC4(CCN(c5ncc(C(=O)N[C@H]6C(C)(C)[C@H](Oc7ccc(C#N)c(Cl)c7)C6(C)C)cn5)CC4)C3)cc1)=N[C@H](Cc1nnn(C)n1)c1nnc(C)n1-2 [Compound I-219] | > 3000 | < 500 |  | 
500 to 1500 | 500 to 1500 |  |  | Cc1sc2c(c1C)C(c1ccc(C[C@H]3C[C@]4(CCCN(c5ncc(C(=O)N[C@H]6C(C)(C)[C@H](Oc7ccc(C#N)c(Cl)c7)C6(C)C)cn5)C4)C3)cc1)=N[C@@H](Cc1ncco1)c1nnc(C)n1-2 [Compound I-157] | > 3000 | < 500 |  | 
 |  | > 3000 | > 3000 | Cc1sc2c(c1C)C(c1ccc(N3CCC[C@H](C(=O)NCc4ncc(C(=O)N[C@H]5C(C)(C)[C@H](Oc6ccc(C#N)c(Cl)c6)C5(C)C)cn4)C3)cc1)=N[C@@H](Cc1ncco1)c1nnc(C)n1-2 [Compound I-332] |  |  | > 3000 | > 3000
< 500 | < 500 |  |  | Cc1sc2c(c1C)C(c1ccc(N[C@H]3CC[C@H](CNc4ncc(C(=O)N[C@H]5C(C)(C)[C@H](Oc6ccc(C#N)c(Cl)c6)C5(C)C)cn4)CC3)cc1)=N[C@@H](Cc1ncco1)c1nnc(C)n1-2 [Compound I-649] | < 500 | < 500 |  | 
1500 to 3000 | 1500 to 3000 |  |  | Cc1sc2c(c1C)C(c1ccc(C(=O)N(C)CCCc3ncc(C(=O)N[C@H]4C(C)(C)[C@H](Oc5ccc(C#N)c(Cl)c5)C4(C)C)cn3)cc1)=N[C@H](Cc1ncco1)c1nnc(C)n1-2 [Compound I-343] | > 3000 | 1500 to 3000 |  | 
> 3000 | < 500 |  |  | Cc1sc2c(c1C)C(c1ccc(OC3CC4(CCN(c5ncc(C(=O)N[C@H]6C(C)(C)[C@H](Oc7ccc(C#N)c(Cl)c7)C6(C)C)cn5)CC4)C3)cc1)=N[C@@H](CC(C)(C)O)c1nnc(C)n1-2 [Compound I-280] | > 3000 | < 500 |  | 
< 500 | < 500 |  |  | Cc1sc2c(c1C)C(c1ccc(N3CCC4(CC3)CCN(c3ncc(C(=O)N[C@H]5C(C)(C)[C@H](Oc6ccc(C#N)c(Cl)c6)C5(C)C)cn3)CC4)cc1)=N[C@@H](Cc1ncco1)c1nnc(C)n1-2 [Compound I-645] | > 3000 | < 500 |  | 
< 500 | > 3000 |  |  | Cc1sc2c(c1C)C(c1ccc(CC3CC4(CCN(c5cnc(C(=O)N[C@H]6C(C)(C)[C@H](Oc7ccc(C#N)c(Cl)c7)C6(C)C)cn5)CC4)C3)cc1)=N[C@@H](Cc1ncco1)c1nnc(C)n1-2 [Compound I-547] | < 500 | < 500 |  | 
 |  | > 3000 | < 500 | Cc1sc2c(c1C)C(c1ccc(C#C[C@H]3C[C@@]4(CCCN(c5ncc(C(=O)N[C@H]6C(C)(C)[C@H](Oc7ccc(C#N)c(Cl)c7)C6(C)C)cn5)C4)C3)cc1)=N[C@@H](C)c1nnc(C)n1-2 [Compound I-379] |  |  | > 3000 | < 500
< 500 | < 500 |  |  | Cc1sc2c(c1C)C(c1ccc(CCCOC3CCN(c4ncc(C(=O)N[C@H]5C(C)(C)[C@H](Oc6ccc(C#N)c(Cl)c6)C5(C)C)cn4)CC3)cc1)=N[C@H](Cc1cnccn1)c1nnc(C)n1-2 [Compound I-278] | < 500 | < 500 |  | 
> 3000 |  |  | > 3000 | Cc1sc2c(c1C)C(c1ccc(C(C)(C)N3CC4(CCN(c5ncc(C(=O)N[C@H]6C(C)(C)[C@H](Oc7ccc(C#N)c(Cl)c7)C6(C)C)cn5)CC4)C3)cc1)=N[C@@H](Cc1ncco1)c1nnc(C)n1-2 [Compound I-396] |  |  | > 3000 | > 3000
< 500 | 500 to 1500 |  |  | Cc1sc2c(c1C)C(c1ccc(-c3csc(OC4CCN(c5ncc(C(=O)N[C@H]6C(C)(C)[C@H](Oc7ccc(C#N)c(Cl)c7)C6(C)C)cn5)CC4)n3)cc1)=N[C@@H](Cc1ncco1)c1nnc(C)n1-2 [Compound I-408] | > 3000 | < 500 |  | 
> 3000 | < 500 |  |  | CC[C@@H]1N=C(c2ccc(N3CC(C4CCN(c5ncc(C(=O)N[C@H]6C(C)(C)[C@H](Oc7ccc(C#N)c(Cl)c7)C6(C)C)cn5)CC4)C3)cc2)c2c(sc(C)c2C)-n2c(C)nnc21 [Compound I-595] | > 3000 | < 500 |  | 
500 to 1500 | < 500 |  |  | Cc1sc2c(c1C)C(c1ccc(CCO[C@@H]3CCCN(c4ncc(C(=O)N[C@H]5C(C)(C)[C@H](Oc6ccc(C#N)c(Cl)c6)C5(C)C)cn4)C3)cc1)=N[C@@H](C)c1nnc(C)n1-2 [Compound I-367] | > 3000 | < 500 |  | 
< 500 | < 500 |  |  | Cc1sc2c(c1C)C(c1ccc(N3CC(OC4CCN(c5ncc(C(=O)N[C@H]6C(C)(C)[C@H](Oc7ccc(C#N)c(Cl)c7)C6(C)C)cn5)CC4)C3)cc1)=N[C@@H](Cc1ncco1)c1nnc(C)n1-2 [Compound I-206, N-[3-(3-chloro-4-cyano-phenoxy)-2,2,4,4-tetramethyl-cyclobutyl]-2-[4-[1-[4-[(9S)-4,5,13-trimethyl-9-(oxazol-2-ylmethyl)-3-thia-1,8,11,12-tetrazatricyclo[8.3.0.02,6]trideca-2(6),4,7,10,12-pentaen-7-yl]phenyl]azetidin-3-yl]oxy-1-piperidyl]pyrimidine-5-carboxamide] | < 500 | < 500 |  | 
